Data as given in patent US12486253B2, “Therapeutics for the degradation of mutant BRAF” (C4 THERAPEUTICS, INC., priority 2021, dated 2025).
“Also recorded” adds a separate entry of the source.

Key:
LOXL4 = experiment: Global proteomics profiling, A375 cells; type: cell-based, human; settings: 300 nM, 24 hours
Method: (§1) Each cell line was treated in duplicate with either DMSO or Compound 157 (final concentration 300 nM) for 24 hours in an incubator at 37° C. with 5% CO2. After the 24-hour incubation, cells were harvested, washed twice with PBS, and snap frozen in liquid nitrogen. Samples were re-suspended in lysis buffer [8 M urea, 50 mM HEPES (pH 8.5), 50 mM NaCl, 1× protease inhibitor cocktail] and lysed by sonication at 4° C. with 85% amplitude in a pulse setting with 30 seconds on and 30 seconds off for a total sonication time of 5 minutes. Lysates were centrifuged at maximum speed for 10 minutes at 4° C. and the supernatant collected, reduced for 1 hour at room temperature with 5 mM TCEP, and the cysteine residues were then alkylated with 15 mM iodoacetamide (room temperature, in dark, 30 minutes). Protein content was extracted by methanol-chloroform precipitation and subsequent ice-cold acetone washes. Protein pellets were resuspended in 8 M urea, 50 mM HEPES (pH 8.5) buffer and protein concentrations were measured by BCA assay. […]
(§2) For peptide tandem mass tag (TMT) labeling, 100 μg of peptides per sample was prepared at […] concentration in 200 mM HEPES (pH 8.5), 30% acetonitrile (ACN) and each the specific TMT reagent. […] TMT reporter ion intensities were quantified by extracting the signal-to-noise ratio for each. […]

[1] = system: A375 cells expressing the oncogenic NRAS^Q61K mutation; experiment: Cellular growth over time of A375 cells expressing NRAS^Q61K; type: cell-based
[2] = system: A375 NRAS^Q61K mutant melanoma cell line xenograft; experiment: In vivo efficacy in A375 NRAS^Q61K mutant melanoma xenograft; design: species or system BALBc/Nude mice; settings: oral gavage
ARAF = ARAF (Homo sapiens, UniProt P10398); experiment: Global proteomics profiling, A375 cells; type: cell-based; design: endogenous in cells; host or cells: A375 (A7.2); settings: 300 nM, 24 hours
Method: as §1, §2

[3] = target: T1, BRAF class III mutation G466V (Homo sapiens, UniProt P15056, G466V); experiment: Western blot of H1666 cells endogenously expressing G466V; type: cell-based; settings: 24 hours
T1 construct: cells endogenously expressing the Class III mutation G466V; host or cells: H1666

WT BRAF = WT BRAF (Homo sapiens, UniProt P15056); experiment: Western blot of WT BRAF and pERK levels in HCT-116 cells; type: cell-based; settings: HCT-116 cells with endogenous WT BRAF
HCT-116 = HCT-116 cell growth; type: cell-based; settings: HCT-116, mutant KRAS driven, WT BRAF
BRAF V600E = BRAF V600E (Homo sapiens, UniProt P15056, V600E); experiment: Global proteomics profiling, A375 cells; type: cell-based; design: endogenous in cells; host or cells: A375; settings: 300 nM, 24 hours, compared to 300 nM dabrafenib treatment
Method: as §1, §2

[4] = system: H1666 cells endogenously expressing the class III BRAF mutation G466V; experiment: Cellular growth over time in H1666 cells; type: cell-based
p61 splice variant = target: T2, p61 splice variant (Homo sapiens, UniProt P15056+Q96SW2, DEL169-380/V600E); experiment: Western blot of engineered HEK-293T cells expressing the p61 splice variant; type: cell-based; settings: lentivirus expression
T2 construct: host or cells: HEK-293T, lentiviral expression
T2 sequence (P15056 with tags, fused parts or gaps DEL169-380/V600E): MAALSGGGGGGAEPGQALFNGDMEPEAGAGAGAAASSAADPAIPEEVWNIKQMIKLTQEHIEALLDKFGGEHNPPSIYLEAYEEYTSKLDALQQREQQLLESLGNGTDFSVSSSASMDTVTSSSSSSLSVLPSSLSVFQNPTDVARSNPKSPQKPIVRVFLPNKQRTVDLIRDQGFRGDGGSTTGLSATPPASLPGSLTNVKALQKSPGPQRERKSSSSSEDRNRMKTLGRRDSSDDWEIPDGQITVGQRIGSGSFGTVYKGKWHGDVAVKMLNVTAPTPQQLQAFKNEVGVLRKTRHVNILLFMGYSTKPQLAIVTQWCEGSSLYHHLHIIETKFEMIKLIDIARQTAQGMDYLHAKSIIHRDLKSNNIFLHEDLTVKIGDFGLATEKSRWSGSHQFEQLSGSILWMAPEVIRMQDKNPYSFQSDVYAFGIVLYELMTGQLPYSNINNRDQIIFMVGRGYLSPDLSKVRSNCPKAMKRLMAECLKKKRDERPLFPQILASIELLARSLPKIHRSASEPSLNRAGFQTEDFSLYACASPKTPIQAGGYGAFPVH
T2 sequence (Q96SW2 whole entry, stated change not applied, canonical isoform): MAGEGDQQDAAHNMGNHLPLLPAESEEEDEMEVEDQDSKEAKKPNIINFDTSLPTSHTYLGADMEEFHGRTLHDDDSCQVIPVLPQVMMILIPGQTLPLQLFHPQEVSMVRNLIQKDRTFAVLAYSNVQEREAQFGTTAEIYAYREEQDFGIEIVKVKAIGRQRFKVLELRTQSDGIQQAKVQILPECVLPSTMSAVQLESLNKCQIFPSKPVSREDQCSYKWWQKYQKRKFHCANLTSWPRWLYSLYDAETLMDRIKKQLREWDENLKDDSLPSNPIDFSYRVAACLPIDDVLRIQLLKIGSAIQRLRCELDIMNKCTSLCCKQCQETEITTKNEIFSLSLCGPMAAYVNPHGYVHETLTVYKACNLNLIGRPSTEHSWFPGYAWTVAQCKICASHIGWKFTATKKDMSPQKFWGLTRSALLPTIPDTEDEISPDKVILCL
T2 sequence (Q16531 whole entry partner, canonical isoform): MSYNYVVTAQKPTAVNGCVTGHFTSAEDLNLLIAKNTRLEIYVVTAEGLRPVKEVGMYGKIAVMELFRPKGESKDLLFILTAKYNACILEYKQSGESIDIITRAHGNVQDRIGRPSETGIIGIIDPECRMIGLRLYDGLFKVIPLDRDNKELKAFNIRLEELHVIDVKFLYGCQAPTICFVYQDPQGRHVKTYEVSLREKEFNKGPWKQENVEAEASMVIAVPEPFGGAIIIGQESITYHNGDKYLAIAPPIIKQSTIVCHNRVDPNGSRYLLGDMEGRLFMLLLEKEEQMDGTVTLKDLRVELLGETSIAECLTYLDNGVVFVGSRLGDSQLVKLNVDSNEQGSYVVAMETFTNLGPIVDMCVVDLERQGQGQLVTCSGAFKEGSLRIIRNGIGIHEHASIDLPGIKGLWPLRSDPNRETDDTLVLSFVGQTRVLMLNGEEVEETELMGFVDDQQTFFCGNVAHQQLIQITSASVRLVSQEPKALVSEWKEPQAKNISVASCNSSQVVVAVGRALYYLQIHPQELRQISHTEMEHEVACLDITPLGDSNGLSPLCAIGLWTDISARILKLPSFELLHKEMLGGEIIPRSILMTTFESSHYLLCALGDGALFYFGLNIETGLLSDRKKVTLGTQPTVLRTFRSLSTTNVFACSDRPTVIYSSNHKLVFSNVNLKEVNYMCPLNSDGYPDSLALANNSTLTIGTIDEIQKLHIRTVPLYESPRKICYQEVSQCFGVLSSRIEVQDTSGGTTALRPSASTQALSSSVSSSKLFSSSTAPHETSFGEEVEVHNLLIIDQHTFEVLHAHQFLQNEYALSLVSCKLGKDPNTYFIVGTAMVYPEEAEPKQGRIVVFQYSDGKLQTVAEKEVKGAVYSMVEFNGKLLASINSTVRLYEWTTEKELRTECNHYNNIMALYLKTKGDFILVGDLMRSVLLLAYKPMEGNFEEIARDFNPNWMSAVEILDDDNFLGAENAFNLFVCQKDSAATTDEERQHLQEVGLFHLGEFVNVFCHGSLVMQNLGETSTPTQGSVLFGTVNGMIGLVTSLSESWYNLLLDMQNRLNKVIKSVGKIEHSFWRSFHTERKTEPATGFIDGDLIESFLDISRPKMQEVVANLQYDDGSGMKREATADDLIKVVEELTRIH

T1 sequence (P15056 2-766 G466V): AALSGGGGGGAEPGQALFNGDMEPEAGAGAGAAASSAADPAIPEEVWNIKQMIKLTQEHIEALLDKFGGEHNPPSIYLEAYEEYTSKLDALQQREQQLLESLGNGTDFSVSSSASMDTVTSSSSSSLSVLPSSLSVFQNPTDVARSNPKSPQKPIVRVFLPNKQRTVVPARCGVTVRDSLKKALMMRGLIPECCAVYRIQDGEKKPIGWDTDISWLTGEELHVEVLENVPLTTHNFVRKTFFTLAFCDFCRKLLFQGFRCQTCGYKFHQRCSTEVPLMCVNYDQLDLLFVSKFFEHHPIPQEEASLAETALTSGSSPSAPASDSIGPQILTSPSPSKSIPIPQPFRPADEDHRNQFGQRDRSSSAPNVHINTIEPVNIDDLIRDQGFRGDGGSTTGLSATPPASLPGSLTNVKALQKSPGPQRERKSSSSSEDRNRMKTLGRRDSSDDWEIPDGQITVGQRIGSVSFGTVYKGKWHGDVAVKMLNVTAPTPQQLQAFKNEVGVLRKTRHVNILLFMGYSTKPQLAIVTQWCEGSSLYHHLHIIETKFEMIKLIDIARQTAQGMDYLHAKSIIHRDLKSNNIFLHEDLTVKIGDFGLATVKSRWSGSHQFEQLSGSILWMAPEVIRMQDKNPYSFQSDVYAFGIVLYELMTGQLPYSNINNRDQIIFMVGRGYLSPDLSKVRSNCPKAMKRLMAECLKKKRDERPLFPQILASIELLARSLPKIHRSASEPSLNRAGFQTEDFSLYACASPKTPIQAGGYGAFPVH
Sequence of WT BRAF (P15056 whole entry): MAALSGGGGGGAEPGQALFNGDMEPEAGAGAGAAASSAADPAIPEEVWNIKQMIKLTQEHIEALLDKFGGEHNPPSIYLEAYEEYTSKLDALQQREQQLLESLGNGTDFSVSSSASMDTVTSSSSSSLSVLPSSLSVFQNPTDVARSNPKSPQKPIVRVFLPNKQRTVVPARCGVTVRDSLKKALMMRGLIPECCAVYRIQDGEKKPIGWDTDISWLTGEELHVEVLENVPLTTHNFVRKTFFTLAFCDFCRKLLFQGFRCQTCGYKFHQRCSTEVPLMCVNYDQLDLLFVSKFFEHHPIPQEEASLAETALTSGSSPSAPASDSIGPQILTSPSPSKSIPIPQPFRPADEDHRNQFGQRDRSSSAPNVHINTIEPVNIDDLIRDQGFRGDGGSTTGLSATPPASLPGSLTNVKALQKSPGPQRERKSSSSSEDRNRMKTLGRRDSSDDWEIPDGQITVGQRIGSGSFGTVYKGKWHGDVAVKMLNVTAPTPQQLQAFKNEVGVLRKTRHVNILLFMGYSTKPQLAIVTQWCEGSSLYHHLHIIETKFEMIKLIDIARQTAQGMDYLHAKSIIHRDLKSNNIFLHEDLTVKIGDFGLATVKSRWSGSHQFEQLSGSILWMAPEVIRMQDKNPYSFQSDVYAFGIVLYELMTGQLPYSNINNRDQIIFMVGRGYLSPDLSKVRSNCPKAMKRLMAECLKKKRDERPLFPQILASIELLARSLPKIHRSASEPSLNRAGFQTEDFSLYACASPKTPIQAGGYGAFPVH
Sequence of BRAF V600E (P15056 whole entry V600E): as the sequence (P15056 whole entry) above, with V600E counted along it
Sequence of ARAF (P10398 whole entry): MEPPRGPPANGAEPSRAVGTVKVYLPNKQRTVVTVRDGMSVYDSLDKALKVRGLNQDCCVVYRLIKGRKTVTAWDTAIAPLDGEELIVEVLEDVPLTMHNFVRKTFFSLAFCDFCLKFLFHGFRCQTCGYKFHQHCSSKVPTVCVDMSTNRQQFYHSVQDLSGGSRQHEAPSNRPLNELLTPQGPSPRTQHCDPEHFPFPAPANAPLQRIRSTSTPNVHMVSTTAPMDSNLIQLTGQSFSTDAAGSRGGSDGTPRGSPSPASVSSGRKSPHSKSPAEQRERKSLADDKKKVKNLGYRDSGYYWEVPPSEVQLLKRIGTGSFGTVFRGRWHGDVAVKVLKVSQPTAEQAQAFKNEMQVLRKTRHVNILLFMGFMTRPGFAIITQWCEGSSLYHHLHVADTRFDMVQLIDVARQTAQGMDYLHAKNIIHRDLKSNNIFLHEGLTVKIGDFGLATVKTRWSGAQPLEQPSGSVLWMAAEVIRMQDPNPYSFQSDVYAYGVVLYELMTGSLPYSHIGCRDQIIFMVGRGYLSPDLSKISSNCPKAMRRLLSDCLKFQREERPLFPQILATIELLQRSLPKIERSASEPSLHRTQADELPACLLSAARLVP

Question: For CCN(C)S(=O)(=O)Nc1ccc(F)c(Oc2ccc3ncn([C@H]4COC5(CCN(C(=O)CC6(O)CCN(c7cc8c(cc7F)c(N7CCC(=O)NC7=O)nn8C)CC6)CC5)C4)c(=O)c3c2)c1C#N [Compound 157, (3R)-3-[6-[2-cyano-3-[[ethyl(methyl)sulfamoyl]amino]-6-fluorophenoxy]-4-oxoquinazolin-3-yl]-8-[2-[1-[3-(2,4-dioxo-1,3-diazinan-1-yl)-5-fluoro-1-methylindazol-6-yl]-4-hydroxypiperidin-4-yl]acetyl]-1-oxa-8-azaspiro[4.5]decane], which “LOXL4 protein level change” value (LOXL4) is on record?
Answer: Its value is “decreased”.

Question: And the confluency [1]?
Answer: The confluency was no more than 50%.

Question: What about the “tumor response, single agent” value ([2]; single agent) of the same compound?
Answer: The value was “robust tumor growth inhibition; also recorded: efficacious”.

Question: And the “tumor response, in combination with trametinib” value ([2]; with MEKi trametinib 0.1 mg/kg BID)?
Answer: The value was “tumor regressions”.

Question: What about the “ARAF protein level change” value (ARAF) of the same compound?
Answer: The value was “remain largely unchanged”.

Question: What about the “phosphorylated ERK signal” value [3] of the same compound?
Answer: Its value is “decrease”.

Question: What about the “reduction in BRAF signal” value ([3]; includes any WT BRAF) of the same compound?
Answer: The value was 53%.

Question: What about the “WT BRAF levels and phosphorylation of ERK” value (WT BRAF) of the same compound?
Answer: The value was “minimal impact”.

Question: What about the “effect on cell growth” value (HCT-116) of the same compound?
Answer: Its value is “no effect; also recorded: no impact on cell growth”.

Question: What about the “BRAF^V600E protein remaining” value (BRAF V600E) of the same compound?
Answer: Its value is 27%.

Question: And the cell growth inhibition ([4]; G466V)?
Answer: The cell growth inhibition was “effective”.

Question: And the confluency ([4]; over the course of 7 days)?
Answer: Its confluency is no more than 30%.

Question: And the “cell growth, in combination with trametinib” value ([4]; with 1 nM trametinib)?
Answer: The value was “failed to expand”.

Question: What about the “degradation of p61 splice variant” value (p61 splice variant) of the same compound?
Answer: Its value is “capable of degrading”.
